Assay results published in paper PMC5623904, “Structural investigation of nucleophosmin interaction with the tumor suppressor Fbw7γ” (Oncogenesis, 2017).
Read-outs that look alike come from different tables or passages of the source. Peptide text beside a SMILES is read from it. * marks the point of attachment. Dansyl = CN(C)c1cccc2c(S(=O)(=O)*)cccc12

Assays:
Assay type in all cases: binding
[1] = target: T1, Nter-NPM1 D36A-E37A-E39A-E93A (Homo sapiens, UniProt P06748, D36A/E37A/E39A/E93A); test: Equilibrium fluorescence titration, Nter-NPM1 quadruple mutant (E37A); conditions: dansylated peptide 5 μM
T1 construct: inferred from pET28a NdeI/BamHI cloning and HisTrap purification) (N); made in house; host or cells: Escherichia coli BL21(DE3)
Experimental: (§1) Nter-NPM1 mutants were obtained by site-directed mutagenesis using the Quickchange II Lightning Site-Directed Mutagenesis kit (Stratagene, La Jolla, CA, USA), following manufacturer’s instructions. Oligonucleotides used for PCR were obtained from Primm Biotech (Milan, Italy). Forward oligonucleotides used are reported in Supplementary Table 2.
(§2) All experiments were performed at 25 °C in sodium phosphate buffer 20 mM pH 7.2, or in sodium phosphate buffer 20 mM plus 100 mM NaCl pH 7.2 (which sets ionic strength to 150 mM), using a FluoroMax-4 spectrofluorometer (Jobin Yvon, Edison, NJ, USA), equipped with a water bath apparatus. Fbw7γ and CENP-W peptides, functionalized with a dansyl (5-dimetilamminonaftalen-1-sulphonyl) group at their N terminus, were purchased from JPT (Germany). Tat peptide was synthesized employing the solid phase method following standard Fmoc strategies and labeled with dansyl fluorophore at its N terminus. Crude product was purified by RP-HPLC applying a linear gradient of 0.1% TFA CH3CN in 0.1% TFA water from 5% to 65% over 12 min using a semi-preparative 2.2 × 5 cm C18 column at a flow rate of 20 ml/min. Purity and identity were confirmed by LC–MS analysis.
(§3) Titration experiments were conducted with an excitation wavelength of 330 nm while the fluorescence emission spectra were collected in the range between 350 and 650 nm. Titrations were performed at constant peptide concentration (5 μM) and varying protein concentrations (from 0 to 200/400 μM). Titrations were performed in triplicate and data, analyzed with the Graphpad Prism software (https://www.graphpad.com/scientific-software/prism/), were reported as dissociation constant±s.d.
(§4) Equilibrium binding curves were fitted to the standard quadratic equation: […]
(§5) where F is the observed fluorescence signal, n and [A]0 are the total concentration of non-varied and varied species, respectively, and KD is the equilibrium dissociation constant. B and C are constants taking into account the total fluorescence change and fluorescence at [A]0=0, respectively, and k is a term describing the slope of the curve at high protein concentration. Whenever possible, under pseudo first-order conditions, the equation 1 was simplified to: […]

[2] = target: T2, Nter-NPM1 D36A-E37A-E39A-E93A-E121A (Homo sapiens, UniProt P06748, D36A/E121A/E37A/E39A/E93A); test: Equilibrium fluorescence titration, Nter-NPM1 quintuple mutant; conditions: dansylated peptide 5 μM; for Kd: sodium phosphate 20 mM pH 7.2, 25 °C, triplicate, ±s.d.
T2 construct: inferred from pET28a NdeI/BamHI cloning and HisTrap purification) (N); made in house; host or cells: Escherichia coli BL21(DE3)
Experimental: as §1, §2, §3, §4, §5

[3] = target: T3, Nter-NPM1 (residues 16-123) (Homo sapiens, UniProt P06748); test: Equilibrium fluorescence titration of dansylated peptide with Nter-NPM1; conditions: for Nter-NPM1 KD: wild-type Nter-NPM1, N-terminally dansylated peptide 5 μM, protein 0 to 200/400 μM, sodium phosphate 20 mM pH 7.2, 25 °C, fluorescence ex 330 nm, triplicate, ±s.d., Ni = no interaction
T3 construct: inferred from pET28a NdeI/BamHI cloning and HisTrap purification) (N); made in house; host or cells: Escherichia coli BL21(DE3)
Experimental: as §2, §3, §4, §5

[4] = target: T4, Nter-NPM1 D36A-E39A-E93A-E121A (Homo sapiens, UniProt P06748, D36A/E121A/E39A/E93A); test: Equilibrium fluorescence titration, Nter-NPM1 quadruple mutant (E121A); conditions: dansylated peptide 5 μM; sodium phosphate 20 mM pH 7.2, 25 °C; triplicate, ±s.d.
T4 construct: inferred from pET28a NdeI/BamHI cloning and HisTrap purification) (N); made in house; host or cells: Escherichia coli BL21(DE3)
Experimental: as §1, §2
Titration experiments were conducted with an excitation wavelength of 330 nm while the fluorescence emission spectra were collected in the range between 350 and 650 nm. Titrations were performed at constant peptide concentration (5 μM) and varying protein concentrations (from 0 to 200/400 μM). Titrations were performed in triplicate and data, analyzed with the Graphpad Prism software (https://www.graphpad.com/scientific-software/prism/), were reported as dissociation constant±s.d. […]
(§6) where F is the observed fluorescence signal, n and [A]0 are the total concentration of non-varied and varied species, respectively, and KD is the equilibrium dissociation constant. B and C are constants taking into account the total fluorescence change and fluorescence at [A]0=0, respectively, and k is a term describing the slope of the curve at high protein concentration. […]

[5] = target: T5, Nter-NPM1 D36A-E39A-E93A (Homo sapiens, UniProt P06748, D36A/E39A/E93A); test: Equilibrium fluorescence titration, Nter-NPM1 triple mutant; conditions: dansylated peptide 5 μM
T5 construct: inferred from pET28a NdeI/BamHI cloning and HisTrap purification) (N); made in house; host or cells: Escherichia coli BL21(DE3)
Experimental: as §1, §2, §3, §4, §5

[6] = target: T6, Nter-NPM1 D36A-E93A (Homo sapiens, UniProt P06748, D36A/E93A); test: Equilibrium fluorescence titration, Nter-NPM1 D36A-E93A mutant; conditions: dansylated peptide 5 μM; sodium phosphate 20 mM pH 7.2, 25 °C; triplicate, ±s.d.
T6 construct: inferred from pET28a NdeI/BamHI cloning and HisTrap purification) (N); made in house; host or cells: Escherichia coli BL21(DE3)
Experimental: as §1
(§7) All experiments were performed at 25 °C in sodium phosphate buffer 20 mM pH 7.2, or in sodium phosphate buffer 20 mM plus 100 mM NaCl pH 7.2 (which sets ionic strength to 150 mM), using a FluoroMax-4 spectrofluorometer (Jobin Yvon, Edison, NJ, USA), equipped with a water bath apparatus. […]
(§8) Titration experiments were conducted with an excitation wavelength of 330 nm while the fluorescence emission spectra were collected in the range between 350 and 650 nm. […] Titrations were performed in triplicate and data, analyzed with the Graphpad Prism software (https://www.graphpad.com/scientific-software/prism/), were reported as dissociation constant±s.d. […]
as §6

[7] = target: T7, Nter-NPM1 E39A (Homo sapiens, UniProt P06748, E39A); test: Equilibrium fluorescence titration, Nter-NPM1 E39A mutant; conditions: dansylated peptide 5 μM; sodium phosphate 20 mM pH 7.2, 25 °C; triplicate, ±s.d.
T7 construct: inferred from pET28a NdeI/BamHI cloning and HisTrap purification) (N); made in house; host or cells: Escherichia coli BL21(DE3)
Experimental: as §1, §7, §8, §6

[8] = target: T8, Nter-NPM1 E121A (Homo sapiens, UniProt P06748, E121A); test: Equilibrium fluorescence titration, Nter-NPM1 E121A mutant; conditions: dansylated peptide 5 μM; sodium phosphate 20 mM pH 7.2, 25 °C; triplicate, ±s.d.
T8 construct: inferred from pET28a NdeI/BamHI cloning and HisTrap purification) (N); made in house; host or cells: Escherichia coli BL21(DE3)
Experimental: as §1, §7, §8, §6

[9] = target: T9, Nter-NPM1 D36A-E39A (Homo sapiens, UniProt P06748, D36A/E39A); test: Equilibrium fluorescence titration, Nter-NPM1 D36A-E39A mutant; conditions: dansylated peptide 5 μM; sodium phosphate 20 mM pH 7.2, 25 °C; triplicate, ±s.d.
T9 construct: inferred from pET28a NdeI/BamHI cloning and HisTrap purification) (N); made in house; host or cells: Escherichia coli BL21(DE3)
Experimental: as §1, §7, §8, §6

[10] = target: T10, Nter-NPM1 E39A-E93A (Homo sapiens, UniProt P06748, E39A/E93A); test: Equilibrium fluorescence titration, Nter-NPM1 E39A-E93A mutant; conditions: dansylated peptide 5 μM; sodium phosphate 20 mM pH 7.2, 25 °C; triplicate, ±s.d.
T10 construct: inferred from pET28a NdeI/BamHI cloning and HisTrap purification) (N); made in house; host or cells: Escherichia coli BL21(DE3)
Experimental: as §1, §7, §8, §6

[11] = target: T11, Nter-NPM1 D36A (Homo sapiens, UniProt P06748, D36A); test: Equilibrium fluorescence titration, Nter-NPM1 D36A mutant; conditions: dansylated peptide 5 μM; sodium phosphate 20 mM pH 7.2, 25 °C; triplicate, ±s.d.
T11 construct: inferred from pET28a NdeI/BamHI cloning and HisTrap purification) (N); made in house; host or cells: Escherichia coli BL21(DE3)
Experimental: as §1, §7, §8, §6

[12] = target: T12, Nter-NPM1 E93A (Homo sapiens, UniProt P06748, E93A); test: Equilibrium fluorescence titration, Nter-NPM1 E93A mutant; conditions: dansylated peptide 5 μM; sodium phosphate 20 mM pH 7.2, 25 °C; triplicate, ±s.d.
T12 construct: inferred from pET28a NdeI/BamHI cloning and HisTrap purification) (N); made in house; host or cells: Escherichia coli BL21(DE3)
Experimental: as §1, §7, §8, §6

[13] = target: T13, Nter-NPM1 E37A (Homo sapiens, UniProt P06748, E37A); test: Equilibrium fluorescence titration, Nter-NPM1 E37A mutant; conditions: dansylated peptide 5 μM; sodium phosphate 20 mM pH 7.2, 25 °C; triplicate, ±s.d.
T13 construct: inferred from pET28a NdeI/BamHI cloning and HisTrap purification) (N); made in house; host or cells: Escherichia coli BL21(DE3)
Experimental: as §1, §7, §8, §6

[14] = sodium phosphate 20 mM pH 7.2, 25 °C, triplicate, ±s.d., read-out: KD, D36A-E37A-E39A-E93A
[15] = sodium phosphate 20 mM pH 7.2, 25 °C, triplicate, ±s.d., read-out: KD, D36A-E39A-E93A

T4 sequence (P06748 16-123 D36A/E39A/E93A/E121A): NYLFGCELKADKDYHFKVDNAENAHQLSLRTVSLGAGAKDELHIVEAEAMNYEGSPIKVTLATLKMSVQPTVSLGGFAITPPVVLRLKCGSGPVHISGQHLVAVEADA
T5 sequence (P06748 16-123 D36A/E39A/E93A): as the sequence (P06748 16-123 D36A/E39A/E93A/E121A) above, with A106E counted along it
T2 sequence (P06748 16-123 D36A/E37A/E39A/E93A/E121A): as the sequence (P06748 16-123 D36A/E39A/E93A/E121A) above, with E22A counted along it
T1 sequence (P06748 16-123 D36A/E37A/E39A/E93A): as the sequence (P06748 16-123 D36A/E39A/E93A/E121A) above, with E22A, A106E counted along it
T3 sequence (P06748 16-123): as the sequence (P06748 16-123 D36A/E39A/E93A/E121A) above, with A21D, A24E, A78E, A106E counted along it
T12 sequence (P06748 16-123 E93A): as the sequence (P06748 16-123 D36A/E39A/E93A/E121A) above, with A21D, A24E, A106E counted along it
T13 sequence (P06748 16-123 E37A): as the sequence (P06748 16-123 D36A/E39A/E93A/E121A) above, with A21D, E22A, A24E, A78E, A106E counted along it
T10 sequence (P06748 16-123 E39A/E93A): as the sequence (P06748 16-123 D36A/E39A/E93A/E121A) above, with A21D, A106E counted along it
T7 sequence (P06748 16-123 E39A): as the sequence (P06748 16-123 D36A/E39A/E93A/E121A) above, with A21D, A78E, A106E counted along it
T11 sequence (P06748 16-123 D36A): as the sequence (P06748 16-123 D36A/E39A/E93A/E121A) above, with A24E, A78E, A106E counted along it
T6 sequence (P06748 16-123 D36A/E93A): as the sequence (P06748 16-123 D36A/E39A/E93A/E121A) above, with A24E, A106E counted along it
T8 sequence (P06748 16-123 E121A): as the sequence (P06748 16-123 D36A/E39A/E93A/E121A) above, with A21D, A24E, A78E counted along it
T9 sequence (P06748 16-123 D36A/E39A): as the sequence (P06748 16-123 D36A/E39A/E93A/E121A) above, with A78E, A106E counted along it

## CC(C)C[C@H](NC(=O)[C@H](Cc1ccccc1)NC(=O)CNC(=O)[C@H](CCCNC(=N)N)NC(=O)[C@@H]1CCCN1C(=O)[C@H](C)NC(=O)[C@H](CCCCN)NC(=O)[C@H](CCCNC(=N)N)NC(=O)[C@H](CCCCN)NS(=O)(=O)c1cccc2c(N(C)C)cccc12)C(=O)N[C@@H](CCCCN)C(=O)N[C@@H](CCCNC(=N)N)C(=O)N[C@H](C(=O)N[C@@H](Cc1ccccc1)C(=O)N[C@@H](CCCCN)C(=O)N[C@@H](CCCNC(=N)N)C(=O)N[C@@H](CCCCN)C(=O)N[C@@H](CCCCN)C(=O)O)C(C)C [CENP-W*] (Dansyl-KRKAPRGFLKRVFKRKK-OH)
[1]; [14]
  Kd: 71.4 ± 9.1 µM
[2]
  Kd: 734 ± 158 µM
[3]; SD, read-out: Nter-NPM1 KD
  Kd: 6.2 ± 0.9 µM
[4]
  Kd: 82.8 ± 5.6 µM
[5]; [15]
  Kd: 18.4 ± 2.6 µM

## CSCC[C@H](NC(=O)[C@H](CCCNC(=N)N)NC(=O)[C@H](CCCNC(=N)N)NC(=O)[C@H](CCCNC(=N)N)NC(=O)[C@H](CS)NC(=O)[C@H](Cc1ccccc1)NC(=O)[C@@H]1CCCN1C(=O)[C@H](CC(C)C)NS(=O)(=O)c1cccc2c(N(C)C)cccc12)C(=O)N[C@@H](CCCCN)C(=O)N[C@@H](CCCNC(=N)N)C(=O)N[C@@H](CCCCN)C(=O)N[C@@H](CC(C)C)C(=O)N[C@@H](CC(=O)O)C(=O)N[C@@H](Cc1c[nH]cn1)C(=O)O [Fbw7γ*] (Dansyl-LPFCRRRMKRKLDH-OH)
[1]; [14]
  Kd: 151 ± 20.5 µM
[1]; sodium phosphate 20 mM plus 100 mM NaCl pH 7.2 (ionic strength 150 mM), 25 °C, read-out: KD 100mM NaCl, D36A-E37A-E39A-E93A
  Kd: 158 ± 12.3 µM
[2]
  Kd: 654 ± 46.9 µM
[2]; sodium phosphate 20 mM plus 100 mM NaCl pH 7.2 (ionic strength 150 mM), 25 °C
  KD 100mM NaCl, D36A-E37A-E39A-E93A-E121A: No Interaction
[6]
  Kd: 8.4 ± 1.5 µM
[3]; SD, read-out: Nter-NPM1 KD
  Kd: 3.2 ± 0.6 µM
[3]; wild type, sodium phosphate 20 mM plus 100 mM NaCl pH 7.2 (ionic strength 150 mM), 25 °C, dansylated peptide 5 μM, read-out: KD 100mM NaCl, Nter-NPM1
  Kd: 20.6 ± 2.6 µM
[7]
  Kd: 6.2 ± 1.5 µM
[8]
  Kd: 13.3 ± 3.8 µM
[4]
  Kd: 224 ± 35.9 µM
[9]
  Kd: 13.5 ± 2 µM
[10]
  Kd: 7.6 ± 1.9 µM
[11]
  Kd: 10.8 ± 2.6 µM
[12]
  Kd: 5 ± 1.6 µM
[5]; [15]
  Kd: 22 ± 3 µM
[5]; sodium phosphate 20 mM plus 100 mM NaCl pH 7.2 (ionic strength 150 mM), 25 °C, read-out: KD 100mM NaCl, D36A-E39A-E93A
  Kd: 66.8 ± 12.5 µM
[13]
  Kd: 12.5 ± 1.4 µM

## C[C@H](NS(=O)(=O)c1cccc2c(N(C)C)cccc12)C(=O)NCC(=O)N[C@@H](CCCNC(=N)N)C(=O)N[C@@H](CCCCN)C(=O)N[C@@H](CCCCN)C(=O)N[C@@H](CCCNC(=N)N)C(=O)N[C@@H](CCCNC(=N)N)C(=O)N[C@@H](CCC(N)=O)C(=O)N[C@@H](CCCNC(=N)N)C(=O)N[C@@H](CCCNC(=N)N)C(=O)N[C@@H](CCCNC(=N)N)C(=O)N1CCC[C@H]1C(=O)N1CCC[C@H]1C(=O)N[C@@H](CCC(N)=O)C(=O)O [Tat*]
[1]; [14]
  Kd: 57.4 ± 7 µM
[2]
  Kd: 643 ± 70.8 µM
[3]; SD, read-out: Nter-NPM1 KD
  Kd: 2.4 ± 0.5 µM
[4]
  Kd: 63.8 ± 5 µM
[5]; [15]
  Kd: 11.1 ± 2.1 µM

## DDEAQTLAKFVLSQK [Unrelated long, reference compound]
[3]
  Nter-NPM1 KD: Ni
[3]; listed as unrelated long
  Nter-NPM1 KD: No interaction

## VLSQK [Unreleted short, reference compound]
[3]
  Nter-NPM1 KD: Ni
[3]; listed as unrelated short
  Nter-NPM1 KD: No interaction
